Experiments:
[1] = Administration of acetylcysteine before the consumption of a garlic containing meal; format: in vivo, human; details: administration about 10 minutes before the meal; 50 mg female, 75 mg male test persons; 15 tests per person
Procedure: 2. Administration of an acetylcysteine before the consumption of a garlic containing meal Battery of tests and dosage applied the same as under 1. The administration of acetylcysteine was done about 10 minutes before the meal.

[2] = Administration of acetylcysteine after the consumption of a garlic containing meal; format: in vivo, human; details: ACC-fizzing tablets (Hexal) given after the meal; 50 mg female test persons (32 to 74 kg), 75 mg male test persons (52 to 98 kg); 15 tests per person
Procedure: 1. Administration of acetylcysteine after the consumption of a garlic containing meal Battery of tests with 15 tests per person. Dosing: 50 mg with female test persons (32 to 74 kg body weight) i. 75 mg with male test persons (52 to 98 kg body weight) In these tests, the ACC-fizzing tablets of the Hexal company were applied. The positive test results were observed each within a time window of 10 to 20 minutes after administration of the acetylcysteine.

Q: For `CC(=O)N[C@@H](CS)C(=O)O` [acetylcysteine], which “odor formation after garlic containing meal” value [1] is on record?
A: Its value is “odor formation was likewise prevented”.

Q: What about the “odor after garlic containing meal” value [2] of the same compound?
A: Its value is “no odor in all tests”.
